Results published in patent US12534460B2, “LSD salt crystal forms” (Mind Medicine, Inc., priority 2021, dated 2026).
Like-named read-outs stand apart in the source and are kept apart here.

Key:
[1] = Accelerated storage at 40° C./75% RH for 14 days; format: physicochemical; settings: for XRPD of Output / Nature of solid: 40° C./75% RH, 14 days, unsealed vials; for XRPD of Output: physical stability; for Nature of solid: visual observation for deliquescence; for change in form after stress: after stress at 40° C./75 RH
Excerpt: Samples were visually observed for signs of deliquescence and analysed by XRPD post stressing for physical stability and HPLC for chemical stability.

[2] = Heat cycled maturation and solubility assessment (liquors analysed by HPLC versus a standard)
[3] = Compression of amorphous solid, analysis by XRPD; format: physicochemical; settings: force of 10^5N for approximately 24 hours
Description: Experimental: D-LSD amorphous oxalate (Lot: DC1134, ˜50 mg) was pressed with a force of 10^5N for approximately 24 hours. The solids were then removed from the press for analysis by XRPD.

CCN(CC)C(=O)C1C=C2c3cccc4[nH]cc(c34)CC2N(C)C1.O=C(O)C(=O)O [D-LSD oxalate Pattern B]
XRPD of Output [1]: oxalate Pattern B | Nature of solid [1]: solid | change in form after stress [1]: did not show a change in form

CCN(CC)C(=O)[C@@H]1C=C2c3cccc4[nH]cc(c34)C[C@H]2N(C)C1.O=S(=O)(O)O [D-LSD Sulfate Amorphous Salt, D-LSD sulfate amorphous salt]
solubility ([2]; EtOH, at 25° C., sulfate salt): > 100000 µg/mL | solubility ([2]; IPA/water (95:5), at 40° C., sulfate salt): > 100000 µg/mL | solubility ([2]; MeOH, at 25° C., sulfate salt): > 200000 µg/mL | solubility ([2]; iPrOAc/water (98:2), at 40° C., sulfate salt): > 100000 µg/mL

CCN(CC)C(=O)[C@@H]1C=C2c3cccc4[nH]cc(c34)C[C@H]2N(C)C1.O=C(O)C(O)C(O)C(=O)O [D-LSD D-tartrate Pattern A, D-LSD D-tartaric acid salt]
reversibility of water uptake as relative humidity decreases (DVS profile, only minor hysteresis): reversible | weight lost during the initial desorption cycle ([…]): 0.6 wt % | water absorbed during the subsequent sorption cycle (at 90% RH): 1% | water absorbed during the subsequent sorption cycle (up to 80% RH): 0.65%

CCN(CC)C(=O)[C@@H]1C=C2c3cccc4[nH]cc(c34)C[C@H]2N(C)C1.O=P(O)(O)O [D-LSD phosphate Pattern C, D-LSD phosphoric acid salt Pattern C]
XRPD of Output [1]: phosphate Pattern C | Nature of solid [1]: solid | change in form after stress [1]: did not show a change in form

CCN(CC)C(=O)[C@@H]1C=C2c3cccc4[nH]cc(c34)C[C@H]2N(C)C1.O=C(O)C(=O)O [Amorphous D-LSD oxalate, amorphous D-LSD oxalate salt]
form by XRPD after compression [3]: remained as an amorphous solid | solubility ([2]; EtOH, at 25° C., oxalate salt): > 200000 µg/mL | solubility ([2]; MeOH, at 25° C., oxalate salt): > 200000 µg/mL | Solubility 25° C. ([2]; solvent 1,4-dioxane, input amorphous D-LSD oxalate): 9200 µg/mL | Solubility 25° C. ([2]; solvent Chlorobenzene, input amorphous D-LSD oxalate): 2300 µg/mL | Solubility 25° C. ([2]; solvent EtOAc, input amorphous D-LSD oxalate): 3420 µg/mL | Solubility 25° C. ([2]; solvent IP AC, input amorphous D-LSD oxalate): 4630 µg/mL | Solubility 25° C. ([2]; solvent MEK, input amorphous D-LSD oxalate): 2610 µg/mL | Solubility 25° C. ([2]; solvent MIBK, input amorphous D-LSD oxalate): 1600 µg/mL | Solubility 25° C. ([2]; solvent MeCN, input amorphous D-LSD oxalate): 5490 µg/mL | Solubility 25° C. ([2]; solvent Me—THF, input amorphous D-LSD oxalate): 6140 µg/mL | Solubility 25° C. ([2]; solvent THF:water (95:5), input amorphous D-LSD oxalate): 8670 µg/mL | Solubility 25° C. ([2]; solvent nitromethane, input amorphous D-LSD oxalate): 6490 µg/mL

Br.CCN(CC)C(=O)[C@@H]1C=C2c3cccc4[nH]cc(c34)C[C@H]2N(C)C1 [D-LSD amorphous HBr, D-LSD hydrobromide amorphous salt]
solubility ([2]; 1,4-dioxane, at 40° C., HBr salt): > 100000 µg/mL | solubility ([2]; EtOH, at 25° C., HBr salt): > 100000 µg/mL | solubility ([2]; IPA/water (95:5 v/v), at 40° C., HBr salt): > 100000 µg/mL | solubility ([2]; MEK, at 25° C., HBr salt): > 100000 µg/mL | solubility ([2]; MeOH, at 25° C., HBr salt): > 200000 µg/mL | solubility ([2]; THF/water (95:5 v/v), at 25° C., HBr salt): > 200000 µg/mL | solubility ([2]; iPrOAc/water (98:2 v/v), at 40° C., HBr salt): > 100000 µg/mL | solubility ([2]; nitromethane, at 25° C., HBr salt): > 100000 µg/mL | Solubility 25° C. ([2]; solvent EtOAc, input D-LSD amorphous HBr): 2630 µg/mL | Solubility 25° C. ([2]; solvent IPAC*, input D-LSD amorphous HBr): 4190 µg/mL | Solubility 25° C. ([2]; solvent MIBK, input D-LSD amorphous HBr): 16400 µg/mL | Solubility 25° C. ([2]; solvent MeCN, input D-LSD amorphous HBr): 8680 µg/mL | Solubility 25° C. ([2]; solvent TBME*, input D-LSD amorphous HBr): 9840 µg/mL | Solubility 25° C. ([2]; solvent chlorobenzene, input D-LSD amorphous HBr): 3120 µg/mL | Solubility 25° C. ([2]; solvent heptane, input D-LSD amorphous HBr): 50 µg/mL | Solubility 25° C. ([2]; solvent toluene, input D-LSD amorphous HBr): 3910 µg/mL | Solubility 25° C. ([2]; solvent water, input D-LSD amorphous HBr): 25100 µg/mL
